Measured values published in patent US8440849B2, “Use of nitroaniline derivatives for the production of nitric oxide” (STMicroelectronics S.r.l., priority 2006, dated 2013).

Test: NO photo-release, fluorimetric DAN (2,3-diaminonaphthalene) assay measuring nitrite levels
Conditions: for NO release after irradiation (presence of nitrites, fluorescent spectrum): 350 nm, 8 lamps
From the text: It allows the indirect determination of NO by measuring nitrite levels. In particular, NO is an highly reactive gas that, in the presence of water, forms an equimolar mixture of nitrites and nitrates. Nitrites, reacting with a DAN (2,3-diaminonaphtalene) solution in the presence of an acid, form 1-naphthotriazole, a highly fluorescent compound having a characteristic UV absorbance.
Therefore, the solution of 4-nitro-3-(trifluoromethyl)aniline in methanol after irradiation was dried and then the recovered 4-nitro-3-(trifluoromethyl)aniline was re-dissolved with water and phosphate buffer 0.1 M (pH 7.4). 150 μl of a DAN solution were added to the solution of 4-nitro-3-(trifluoromethyl)aniline heating at 50° C. for 40 minutes. Subsequently, 150 μl of concentrated NaOH was added in order to obtain naphthotriazole ions according to the scheme below.
300 μl of a DAN saturated solution in HCl 0.6 M were added to 3 ml of the irradiated solution of 10-(3-(trifluoromethyl)-4-Nitrophenylamino)decan-1-thiol followed by heating at 50° C. for 20 minutes.
Subsequently, 1 ml of NaOH was added to 1 ml of the solution in order to obtain naphthotriazole ions.
The NO photo-release of the nanoparticles functionalized with 1043-(trifluoromethyl)-4-Nitrophenylamino)decan-1-thiol was measured using fluorimetric assay based on 2,3-diaminonaphthalene (DAN) [T. P. Misko, R. J. Schilling, D. Salvemini, W. M. Moore, M. G. Currie, Anal. […]], as shown in Examples 1 and 2 (FIG. 8).

## Nc1ccc([N+](=O)[O-])c(C(F)(F)F)c1 [4-nitro-3-(trifluoromethyl)aniline]
Methanol solution, 2 hours, DAN, phosphate buffer pH 7.4, FIG. 4
  NO release after irradiation (presence of nitrites, fluorescent spectrum): formation of NO

## O=[N+]([O-])c1ccc(NCCCCCCCCCCS)cc1C(F)(F)F [10-(3-(trifluoromethyl)-4-Nitrophenylamino)decan-1-thiol]
CH3OH:H2O (10%) solution, 35 minutes, DAN in HCl 0.6 M, FIG. 6
  NO release after irradiation (presence of nitrites, fluorescent spectrum): formation of NO
Fluorimetric DAN assay, FIG. 8
  NO photo-release profile (trend of the curve): linear behavior
